{"source": "patent US7704696B2", "about": "“Screening of compounds for OCTN2 transporter activity” (XenoPort, Inc., priority 2005, dated 2010)", "key": {"hOCTN2 [1]": {"biological_target": "T1, hOCTN2 (Homo sapiens, UniProt O76082)", "T1 sequence (O76082 1-557)": "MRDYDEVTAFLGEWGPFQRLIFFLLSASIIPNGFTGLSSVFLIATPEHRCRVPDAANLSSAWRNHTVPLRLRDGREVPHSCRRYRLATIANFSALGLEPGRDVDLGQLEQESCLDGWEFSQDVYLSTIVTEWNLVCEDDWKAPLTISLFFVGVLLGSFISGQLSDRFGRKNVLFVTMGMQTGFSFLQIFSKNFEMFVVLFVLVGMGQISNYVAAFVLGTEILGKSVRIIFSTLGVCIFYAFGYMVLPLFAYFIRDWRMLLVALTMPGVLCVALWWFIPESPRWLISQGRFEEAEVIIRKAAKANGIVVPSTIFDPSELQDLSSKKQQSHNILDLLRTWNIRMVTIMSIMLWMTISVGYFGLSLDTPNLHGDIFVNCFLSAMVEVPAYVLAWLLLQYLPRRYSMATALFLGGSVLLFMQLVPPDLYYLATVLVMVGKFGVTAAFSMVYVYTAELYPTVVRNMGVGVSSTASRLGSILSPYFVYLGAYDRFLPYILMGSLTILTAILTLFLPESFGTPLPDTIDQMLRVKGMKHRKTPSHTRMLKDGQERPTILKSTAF", "assay": "hOCTN2 competition uptake assay (3H-carnitine uptake into CHO-TREx-hOCTN2 cells)", "assay_type": "cell-based", "design": "expressed in transfected cells; host or cells: CHO-TREx cells (CHO-TREx-OCTN2 inducible cell line)", "experimental": "A modified competition uptake assay was developed to determine the ability of a test compound(s) to inhibit the uptake of radiolabeled substrates into CHO-TREx-hOCTN2 cells induced to over-express hOCTN2. The results are stated as affinities (IC50).\nThe competition uptake assay was prepared as follows: Compounds were prepared for assay by diluting a 100 mM stock concentration (in DMSO) to the appropriate working concentration. Typically, seven-point dose response curves were prepared starting at a final assay concentration of 1 mM and carrying out three-fold dilutions. […]\nScintillation fluid (200 μl) (Optiphase Supermix (Perkin Elmer) was added to each well, and the plate was covered with a 96-well adhesive plate cover and placed on a shaker for 10 minutes. The plates were counted on a 96-well plate scintillation counter for 60 sec/well. The data were analyzed using a sigmoidal dose response curve-fitting program (Prism, GraphPad, Inc, San Diego, Calif.; equation: one-site competition).\nFIG. 7 depicts the results of a competition experiment using CHO-TREx-OCTN2 cells. ^3H-carnitine was used as the substrate and unlabeled carnitine was used as the competitor. […] Non-specific uptake was determined by measuring the uptake into cells not induced to express the transporter (“no tet”). […]"}, "hOCTN2 [2]": {"biological_target": "T1, hOCTN2", "assay": "Oocyte uptake assay, oocytes injected with OCTN2 cRNA", "assay_type": "cell-based", "design": "expressed in transfected cells; host or cells: Xenopus oocytes injected with OCTN2 cRNA", "details": "Xenopus oocytes"}, "hOCTN2 [3]": {"biological_target": "T1, hOCTN2", "assay": "hOCTN2 direct uptake assay (LC-MS-MS, CHO-TREx-hOCTN2 cells)", "assay_type": "cell-based", "design": "expressed in transfected cells; host or cells: CHO-TREx cells (CHO-TREx-OCTN2 inducible cell line)", "details": "CHO-TREx-hOCTN2 cells induced to express hOCTN2, specific uptake", "experimental": "(§1) A modified direct uptake assay was developed to determine the ability of test compounds to be transported into CHO-TREx cells induced to over-express hOCTN2. Four concentrations (bracketing the affinity as measured by competition assays) per compound were routinely tested. Non-specific uptake was determined by measuring the uptake into cells not induced to express the transporter (“no tet”).\n(§2) The direct uptake assays were prepared as follows: Compounds were prepared for assay by diluting a 100 mM stock concentration (in DMSO or water, depending on compound solubility) to the appropriate working concentration. Typically, four concentrations bracketing the IC50 were tested. The highest test concentration for each compound was made in an Eppendorf tube and diluted into HBSS. The samples were robustly vortexed and centrifuged for 10 minutes at 13,200 rpm to spin down any precipitate. The supernatant from these samples (˜150 μl/well) was carefully removed and placed into six wells of row A (cmpd 1: A1-6; cmpd 2: A7-12) or row E (cmpd 3: E1-6; cmpd 4: E7-12) of a 96-well polypropylene “compound” plate. Three additional 2-fold dilutions were made in the subsequent rows (B-D or […]) in HBSS. […]"}, "PgP": {"biological_target": "T2, PgP (Homo sapiens, UniProt P08183)", "T2 construct": "expressed in transfected cells; host or cells: MDCK cells", "T2 sequence (P08183 whole entry)": "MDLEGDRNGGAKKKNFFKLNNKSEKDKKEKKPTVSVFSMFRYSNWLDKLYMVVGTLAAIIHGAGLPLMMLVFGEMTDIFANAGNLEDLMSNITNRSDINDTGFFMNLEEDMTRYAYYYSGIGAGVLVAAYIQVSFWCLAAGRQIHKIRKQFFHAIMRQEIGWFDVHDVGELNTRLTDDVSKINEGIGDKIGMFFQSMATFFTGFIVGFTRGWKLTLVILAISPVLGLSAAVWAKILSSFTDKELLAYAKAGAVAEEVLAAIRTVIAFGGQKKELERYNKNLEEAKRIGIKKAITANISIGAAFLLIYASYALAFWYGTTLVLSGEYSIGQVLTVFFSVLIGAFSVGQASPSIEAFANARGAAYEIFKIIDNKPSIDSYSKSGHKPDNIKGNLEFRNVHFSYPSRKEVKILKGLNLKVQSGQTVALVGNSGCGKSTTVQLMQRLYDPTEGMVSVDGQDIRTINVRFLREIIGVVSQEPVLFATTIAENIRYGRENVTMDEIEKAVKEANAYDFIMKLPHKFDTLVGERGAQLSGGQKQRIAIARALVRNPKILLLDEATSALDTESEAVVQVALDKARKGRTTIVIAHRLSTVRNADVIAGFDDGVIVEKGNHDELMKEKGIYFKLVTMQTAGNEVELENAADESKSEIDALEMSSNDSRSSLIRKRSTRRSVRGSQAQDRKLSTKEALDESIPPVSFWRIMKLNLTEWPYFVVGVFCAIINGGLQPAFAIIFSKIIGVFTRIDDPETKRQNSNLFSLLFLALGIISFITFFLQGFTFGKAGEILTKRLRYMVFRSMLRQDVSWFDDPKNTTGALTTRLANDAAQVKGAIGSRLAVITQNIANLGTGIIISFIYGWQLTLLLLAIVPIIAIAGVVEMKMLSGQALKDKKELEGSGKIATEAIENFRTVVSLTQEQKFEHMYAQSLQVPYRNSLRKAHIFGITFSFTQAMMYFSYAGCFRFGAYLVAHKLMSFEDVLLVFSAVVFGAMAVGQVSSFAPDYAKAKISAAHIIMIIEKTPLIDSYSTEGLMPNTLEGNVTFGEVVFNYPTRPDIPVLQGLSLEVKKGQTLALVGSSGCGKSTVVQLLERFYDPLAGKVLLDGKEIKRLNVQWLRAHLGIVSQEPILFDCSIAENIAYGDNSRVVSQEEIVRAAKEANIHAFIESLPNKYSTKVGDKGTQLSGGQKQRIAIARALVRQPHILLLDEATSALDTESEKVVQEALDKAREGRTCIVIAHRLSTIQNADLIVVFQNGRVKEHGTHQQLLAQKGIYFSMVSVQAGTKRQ", "assay": "Transwell monolayer efflux assay, MDCK cells with TREx-PgP", "assay_type": "cell-based", "experimental": "Transwell monolayer efflux assays can be performed by transfecting MDCK cells with the tetracycline-inducible TREx-PgP expression vector. The cells optionally can be transfected with a nucleic acid encoding the transporter of interest. The transfected cells are seeded on polycarbonate filter membranes in transwell dishes and grown for 3-5 days, yielding a polarized monolayer with tight junctions between cells."}, "[4]": {"substrate": "C[N+](C)(C)CC(O)CC(=O)[O-]", "assay": "hOCTN2 direct uptake assay (LC-MS-MS, CHO-TREx-hOCTN2 cells)", "assay_type": "cell-based, human", "details": "other: CHO-TREx-hOCTN2 cells induced to express hOCTN2, specific uptake", "experimental": "as §1, §2"}, "[5]": {"details": "2.5 nM 3H-vinblastine, in the presence of 250 μM verapamil"}}, "data": [{"molecule": "C[N+](C)(C)CC(O)CC(=O)[O-]", "note": "(centres unmarked) [Carnitine, carnitine]", "values": [{"measurement": "uptake of labeled carnitine with increasing unlabeled carnitine", "setting": "hOCTN2 [1]; cells induced to express OCTN2, unlabeled carnitine as competitor", "value": "uptake of labeled carnitine decreased as the concentration of unlabeled carnitine increased"}, {"measurement": "IC50", "setting": "hOCTN2 [1]; inhibition of 3H-carnitine uptake, CHO-TREx-hOCTN2 cells induced to express hOCTN2", "value": 6.3, "unit": "µM"}, {"measurement": "3H-carnitine uptake in OCTN2-expressing oocytes versus noninjected controls", "setting": "hOCTN2 [2]", "value": "higher levels of ^3H-carnitine uptake than noninjected controls"}, {"measurement": "Direct Uptake Vmax", "setting": "hOCTN2 [3]", "value": 7.7, "unit": "pmol/min/well"}]}, {"molecule": "CC[C@]1(O)C[C@@H]2CN(CCc3c([nH]c4ccccc34)[C@@](C(=O)OC)(c3cc4c(cc3OC)N(C)[C@H]3[C@@](O)(C(=O)OC)[C@H](OC(C)=O)[C@]5(CC)C=CCN6CC[C@]43[C@@H]65)C2)C1", "note": "[^3H-vinblastine, vinblastine]", "values": [{"measurement": "apical to basolateral transport", "setting": "PgP; [5]", "value": "strongly increased"}, {"measurement": "basolateral to apical transport", "setting": "PgP; [5]", "value": "strongly decreased"}, {"measurement": "PgP substrate status", "setting": "PgP; concluded from transport with and without verapamil", "value": "substrate of PgP"}]}, {"molecule": "hOCTN2 (Homo sapiens) (protein, expressed in transfected cells; host or cells: CHO-TREx cells (CHO-TREx-OCTN2 inducible cell line)) MRDYDEVTAFLGEWGPFQRLIFFLLSASIIPNGFTGLSSVFLIATPEHRCRVPDAANLSSAWRNHTVPLRLRDGREVPHSCRRYRLATIANFSALGLEPGRDVDLGQLEQESCLDGWEFSQDVYLSTIVTEWNLVCEDDWKAPLTISLFFVGVLLGSFISGQLSDRFGRKNVLFVTMGMQTGFSFLQIFSKNFEMFVVLFVLVGMGQISNYVAAFVLGTEILGKSVRIIFSTLGVCIFYAFGYMVLPLFAYFIRDWRMLLVALTMPGVLCVALWWFIPESPRWLISQGRFEEAEVIIRKAAKANGIVVPSTIFDPSELQDLSSKKQQSHNILDLLRTWNIRMVTIMSIMLWMTISVGYFGLSLDTPNLHGDIFVNCFLSAMVEVPAYVLAWLLLQYLPRRYSMATALFLGGSVLLFMQLVPPDLYYLATVLVMVGKFGVTAAFSMVYVYTAELYPTVVRNMGVGVSSTASRLGSILSPYFVYLGAYDRFLPYILMGSLTILTAILTLFLPESFGTPLPDTIDQMLRVKGMKHRKTPSHTRMLKDGQERPTILKSTAF", "values": [{"measurement": "Km", "setting": "[4]", "value": 300, "unit": "µM"}]}]}
